From PubChem BioAssay (NCI)
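Method: 48-hour compound exposure of cells in 96-well plates, five concentrations, linear interpolation of endpoints. TGI denotes the concentration required for complete inhibition of growth.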

Assays:
Assay in all cases: DTP human tumour cell line panel, 48 h
[1] = test system: SK-MEL-5 melanoma
[2] = test system: MOLT-4 leukemia
[3] = test system: A498 renal
[4] = test system: COLO 205 colon
[5] = test system: SK-MEL-28 melanoma
[6] = test system: M14 melanoma
[7] = test system: NCI-H226 lung
[8] = test system: SR leukemia
[9] = test system: OVCAR-5 ovarian
[10] = test system: IGROV1 ovarian
[11] = test system: HOP-62 NSCLC
[12] = test system: K-562 leukemia
[13] = test system: LOX IMVI melanoma
[14] = test system: DLD-1 colon
[15] = test system: OVCAR-8 ovarian
[16] = test system: OVCAR-3 ovarian
[17] = test system: CAKI-1 renal
[18] = test system: HL-60(TB) leukemia
[19] = test system: HCT-15 colon
[20] = test system: UACC-257 melanoma
[21] = test system: LXFL 529 NSCLC
[22] = test system: ACHN renal
[23] = test system: DMS 114 small cell lung
[24] = test system: NCI-H23 lung
[25] = test system: U251 CNS
[26] = test system: SNB-75 CNS
[27] = test system: OVCAR-4 ovarian
[28] = test system: KM20L2 colon
[29] = test system: SK-MEL-2 melanoma
[30] = test system: M19-MEL melanoma
[31] = test system: HOP-18 NSCLC
[32] = test system: SK-OV-3 ovarian
[33] = test system: TK-10 renal
[34] = test system: UO-31 renal
[35] = test system: SN12C renal
[36] = test system: CCRF-CEM leukemia
[37] = test system: DMS 273 small cell lung
[38] = test system: UACC-62 melanoma
[39] = test system: RXF-631 renal
[40] = test system: KM12 colon
[41] = test system: RXF 393 renal
[42] = test system: A549 NSCLC
[43] = test system: EKVX NSCLC
[44] = test system: SNB-19 CNS
[45] = test system: SF-295 CNS
[46] = test system: 786-0 renal
[47] = test system: NCI-H460 lung
[48] = test system: SW-620 colon
[49] = test system: HCT-116 colon
[50] = test system: MALME-3M melanoma
[51] = test system: NCI-H522 lung
[52] = test system: SF-268 CNS
[53] = test system: HCC-2998 colon
[54] = test system: HT29 colon
[55] = test system: XF 498 CNS
[56] = test system: RPMI-8226 leukemia
[57] = test system: SNB-78 CNS
[58] = test system: SF-539 CNS
[59] = test system: HOP-92 NSCLC

With N#CCCCCCOCCOCCOCCOCCOCCCCCC#N the TGI [1] was > 100 µM, the TGI [2] was > 100 µM and the TGI [3] was > 100 µM. The TGI [4] was > 100 µM, the TGI [5] was > 100 µM and the TGI [6] was > 100 µM. For the same compound, the TGI [7] was > 100 µM, the TGI [8] was > 100 µM and the TGI [9] was > 100 µM. The TGI [10] was > 100 µM, the TGI [11] was > 100 µM and the TGI [12] was > 100 µM. For the same compound, the TGI [13] was > 100 µM, the TGI [14] was > 100 µM and the TGI [15] was > 100 µM. The TGI [16] was > 100 µM, the TGI [17] was > 100 µM and the TGI [18] was > 100 µM. For the same compound, the TGI [19] was > 100 µM, the TGI [20] was > 100 µM and the TGI [21] was > 100 µM. The TGI [22] was > 100 µM, the TGI [23] was > 100 µM and the TGI [24] was > 100 µM. For the same compound, the TGI [25] was > 100 µM, the TGI [26] was > 100 µM and the TGI [27] was > 100 µM. The TGI [28] was > 100 µM, the TGI [29] was > 100 µM and the TGI [30] was > 100 µM. For the same compound, the TGI [31] was > 100 µM, the TGI [32] was > 100 µM and the TGI [33] was > 100 µM. The TGI [34] was > 100 µM, the TGI [35] was > 100 µM and the TGI [36] was > 100 µM. The TGI [37] was > 100 µM, the TGI [38] was > 100 µM and the TGI [39] was > 100 µM. For the same compound, the TGI [40] was > 100 µM, the TGI [41] was > 100 µM and the TGI [42] was > 100 µM. For the same compound, the TGI [43] was > 100 µM, the TGI [44] was > 100 µM and the TGI [45] was > 100 µM. The TGI [46] was > 100 µM, the TGI [47] was > 100 µM and the TGI [48] was > 100 µM. For the same compound, the TGI [49] was > 100 µM, the TGI [50] was > 100 µM and the TGI [51] was > 100 µM. The TGI [52] was > 100 µM, the TGI [53] was > 100 µM and the TGI [54] was > 100 µM.
For CC(=O)C1Cn2c(=O)c3cc4ccccc4cc3c(=O)n2C=C1C (configuration not stated), the TGI [1] was > 100 µM, the TGI [55] was > 100 µM and the TGI [56] was > 100 µM. The TGI [2] was > 100 µM, the TGI [3] was > 100 µM and the TGI [4] was > 100 µM. The TGI [5] was > 100 µM, the TGI [6] was > 100 µM and the TGI [7] was > 100 µM. For the same compound, the TGI [8] was > 100 µM, the TGI [9] was > 100 µM and the TGI [10] was > 100 µM. The TGI [11] was > 100 µM, the TGI [57] was > 100 µM and the TGI [12] was > 100 µM. The TGI [13] was > 100 µM, the TGI [14] was > 100 µM and the TGI [15] was > 100 µM. For the same compound, the TGI [16] was > 100 µM, the TGI [17] was > 100 µM and the TGI [18] was > 100 µM. For the same compound, the TGI [19] was > 100 µM, the TGI [20] was > 100 µM and the TGI [21] was > 100 µM. The TGI [22] was > 100 µM, the TGI [23] was > 100 µM and the TGI [24] was > 100 µM. For the same compound, the TGI [25] was > 100 µM, the TGI [26] was > 100 µM and the TGI [27] was > 100 µM. For the same compound, the TGI [28] was > 100 µM, the TGI [29] was > 100 µM and the TGI [30] was > 100 µM. For the same compound, the TGI [32] was > 100 µM, the TGI [33] was > 100 µM and the TGI [58] was > 100 µM. The TGI [34] was > 100 µM, the TGI [35] was > 100 µM and the TGI [36] was > 100 µM. For the same compound, the TGI [37] was > 100 µM, the TGI [39] was > 100 µM and the TGI [40] was > 100 µM. For the same compound, the TGI [41] was > 100 µM, the TGI [42] was > 100 µM and the TGI [43] was > 100 µM. For the same compound, the TGI [44] was > 100 µM, the TGI [45] was > 100 µM and the TGI [46] was > 100 µM. For the same compound, the TGI [59] was > 100 µM, the TGI [47] was > 100 µM and the TGI [48] was > 100 µM. The TGI [49] was > 100 µM, the TGI [50] was > 100 µM and the TGI [51] was > 100 µM. The TGI [52] was > 100 µM and the TGI [53] was > 100 µM.
C(=N\Nc1ccccc1)/c1nc2ccccc2nc1/C=N/Nc1ccccc1 showed a TGI [1] of 35.4 µM, a TGI [2] of 79.8 µM and a TGI [3] of 31.1 µM. It also gave a TGI [5] of 31.7 µM, a TGI [6] of 30 µM and a TGI [7] of 34.3 µM. The TGI [8] was > 84.7 µM, the TGI [9] was 84.9 µM and the TGI [10] was 21.5 µM. The TGI [11] was 34.6 µM, the TGI [57] was 42.7 µM and the TGI [12] was 20.5 µM. The TGI [13] was 22.1 µM, the TGI [14] was 40.9 µM and the TGI [15] was 17 µM. For the same compound, the TGI [16] was 31.9 µM, the TGI [17] was 21.4 µM and the TGI [18] was > 100 µM. The TGI [19] was 25.8 µM, the TGI [20] was 58.2 µM and the TGI [21] was 23 µM. It also gave a TGI [22] of 30.6 µM, a TGI [24] of 27.2 µM and a TGI [26] of 31.4 µM. The TGI [27] was 48.4 µM, the TGI [28] was 26.5 µM and the TGI [29] was 39.3 µM. It also gave a TGI [30] of 41.1 µM, a TGI [32] of 38.6 µM and a TGI [33] of 31.6 µM. The TGI [58] was 30.8 µM, the TGI [34] was > 84.6 µM and the TGI [35] was 36.4 µM. The TGI [36] was > 100 µM, the TGI [38] was 27.3 µM and the TGI [39] was 27.6 µM. The TGI [40] was 41 µM, the TGI [41] was 30.1 µM and the TGI [42] was 28.8 µM. The TGI [43] was > 78.6 µM, the TGI [44] was 35.4 µM and the TGI [45] was 30.5 µM. For the same compound, the TGI [46] was 29.5 µM, the TGI [59] was 33.2 µM and the TGI [47] was 29 µM. The TGI [48] was 30.7 µM, the TGI [49] was 25.7 µM and the TGI [50] was 41.6 µM. The TGI [51] was 35.9 µM, the TGI [52] was 29.3 µM and the TGI [53] was 25.3 µM. It also gave a TGI [54] of 23.5 µM.
